Reference: patent US20260049104A1, “PEPTIDES WITH ANTIMICROBIAL PROPERTIES” (priority 2022, published 2026)
Converted amounts (≈) assume the structure as drawn. Read-outs that look alike come from different tables or passages of the source. No end group written: not given here.

Legend:
Klebsiella pneumoniae = details: for MIC value: Table 15, unit inferred
Protocol: (§1) MIC screening of the peptides against a panel of ATCC and clinical strains was performed using broth microdilution method.^1 Briefly, peptides stock solutions in DMSO (0.1/G TFA) were diluted into Mueller Hinton Broth (MHB), followed by two-fold serial dilution in a 96-well plate. Bacteria culture in mid-log phase was diluted into MHB to yield […] colony-forming units (CFU)/mL. Equal volume of the starting inoculum was added to the peptide samples, then incubated for 18-20 h (37° C., 120 rpm). OD600 of the samples was then measured using Tecan Infinite M200 (TECAN, Männedorf, Switzerland). MIC is defined as the lowest peptide concentration to achieve more than 90% reduction in OD600 relative to the drug-free control. The experiments were repeated three times. Colistin-resistant clinical isolates are a kind gift from Dr. Jeanette Koh (National University Hospital, Singapore). Multidrug-resistant clinical isolates are a kind gift from Dr. Lakshminarayanan Rajamani (Singapore Eye Research Institute, Singapore).
(§2) Kanamycin and ampicillin were used as antibacterial control agents. […] Then, sequential 2-fold serial dilutions of the mix were diluted in 50 μL MH broth and 50 μL cell cultures were added to wells. […] All assays were carried out in triplicate.

Pseudomonas aeruginosa = type: cell-based; details: Table 15, unit inferred
From the text: The experiments were repeated three times.

Enterobacter cloacae = details: Table 15, unit inferred
Protocol: as §1, §2

Escherichia coli = details: for MIC value: Table 15, unit inferred
Protocol: as §1, §2

Acinetobacter baumannii = details: Table 15, unit inferred
Protocol: as §1, §2

[1] = Pseudomonas aeruginosa DR4877/07
[2] = Pseudomonas aeruginosa DR5790/07
[3] = Acinetobacter baumanii ACβA1001
[4] = Acinetobacter baumanii ACβA1002
[5] = Acinetobacter baumanii ACβA1003
[6] = Acinetobacter baumanii ACβA1004
[7] = ATCC 25922, printed under Klebsiella pneumoniae

| Compound | MIC value (Pseudomonas aeruginosa; Pseudomonas aeruginosa DM4150R) | MIC value (Pseudomonas aeruginosa; Pseudomonas aeruginosa DM23376) | MIC value (Pseudomonas aeruginosa; [1]) | MIC value (Pseudomonas aeruginosa; [2]) | MIC value (Enterobacter cloacae; Enterobacter cloacae CRE1010) | MIC value (Enterobacter cloacae; Enterobacter cloacae CRE1014) | MIC value (Enterobacter cloacae; Enterobacter cloacae CRE1015) | MIC value (Enterobacter cloacae; Enterobacter cloacae CRE1016) | MIC value (Enterobacter cloacae; Enterobacter cloacae CRE1017) | MIC value (Escherichia coli; Escherichia coli M2) | MIC value (Escherichia coli; Escherichia coli M6) | MIC value (Escherichia coli; Escherichia coli M10) | MIC value (Escherichia coli; Escherichia coli M11) | MIC value (Acinetobacter baumannii; [3]) | MIC value (Acinetobacter baumannii; [4]) | MIC value (Acinetobacter baumannii; [5]) | MIC value (Acinetobacter baumannii; [6]) | MIC value (Klebsiella pneumoniae; [7]) | MIC value (Klebsiella pneumoniae; CRE1006, Klebsiella pneumoniae) | MIC value (Klebsiella pneumoniae; Klebsiella pneumoniae CRE 1007) | further results |
| --- | --- | --- | --- | --- | --- | --- | --- | --- | --- | --- | --- | --- | --- | --- | --- | --- | --- | --- | --- | --- | --- |
| CC[C@H](C)[C@@H]1NC(=O)[C@@H](NC(=O)[C@H]2NC(=O)[C@H](CC(C)C)NC(=O)[C@@H](NC(=O)[C@H](CCCNC(=N)N)NC(=O)CNC(=O)[C@@H](N)CC(=O)O)Cc3c[nH]c4cc(ccc34)C2CC(N)=O)Cc2c[nH]c3cc(ccc23)C(CCCN)[C@@H](C(=O)N[C@@H](CC(N)=O)C(=O)N[C@@H](Cc2c[nH]cn2)C(=O)O)NC1=O (some centres unmarked) [Compound 27] |  |  |  |  |  |  |  |  |  |  |  |  |  |  |  |  |  |  |  |  | MIC (Klebsiella pneumoniae; Klebsiella pneumoniae ATC 700603, Table 14, preliminary screening): 8 µg/mL (≈ 5.52 µM) |
| CC(C)[C@@H]1NC(=O)[C@@H](N)Cc2c[nH]c3cc(ccc23)C(C(N)=O)[C@@H](C(=O)N[C@@H](C)C(=O)N[C@H]2Cc3cccc(c3)C(CCNC(=N)N)[C@@H](C(=O)N[C@H]3Cc4c[nH]c5cc(ccc45)C(CCNC(=N)N)[C@@H](C(=O)N[C@@H](CCCNC(=N)N)C(=O)N[C@@H](Cc4c[nH]c5ccccc45)C(=O)O)NC(=O)[C@H](CO)NC3=O)NC(=O)[C@H](C)NC2=O)NC1=O (some centres unmarked) [xenorceptide A11] | 16 µg/mL (≈ 9.82 µM) | 16 µg/mL (≈ 9.82 µM) | 32 µg/mL (≈ 19.6 µM) | 32 µg/mL (≈ 19.6 µM) | 4 µg/mL (≈ 2.46 µM) | 8 µg/mL (≈ 4.91 µM) | 16 µg/mL (≈ 9.82 µM) | 8 µg/mL (≈ 4.91 µM) | 16 µg/mL (≈ 9.82 µM) | 8 µg/mL (≈ 4.91 µM) | 4 µg/mL (≈ 2.46 µM) | 2 µg/mL (≈ 1.23 µM) | 4 µg/mL (≈ 2.46 µM) | 16 µg/mL (≈ 9.82 µM) | 16 µg/mL (≈ 9.82 µM) | 16 µg/mL (≈ 9.82 µM) | 16 µg/mL (≈ 9.82 µM) | 1 µg/mL (≈ 0.614 µM) | 4 µg/mL (≈ 2.46 µM) | 4 µg/mL (≈ 2.46 µM) | MIC value (Klebsiella pneumoniae; Klebsiella pneumoniae CRE1008): 4 µg/mL (≈ 2.46 µM); MIC value (Klebsiella pneumoniae; Klebsiella pneumoniae CRE1011): 4 µg/mL (≈ 2.46 µM); MIC value (Klebsiella pneumoniae; Klebsiella pneumoniae CRE1012): 4 µg/mL (≈ 2.46 µM) |
| CC(C)[C@@H]1NC(=O)[C@@H](N)Cc2c[nH]c3cc(ccc23)C(C(N)=O)[C@@H](C(=O)N[C@@H](C)C(=O)N[C@H]2Cc3cccc(c3)C(CCNC(=N)N)[C@@H](C(=O)N[C@H]3Cc4c[nH]c5cc(ccc45)C(CCCN)[C@@H](C(=O)N[C@@H](CCCNC(=N)N)C(=O)N[C@@H](Cc4c[nH]c5ccccc45)C(=O)O)NC(=O)[C@H](CO)NC3=O)NC(=O)[C@H](C)NC2=O)NC1=O (some centres unmarked) [xenorceptide A12-1] | 32 µg/mL (≈ 20 µM) | > 32 µg/mL | 32 µg/mL (≈ 20 µM) | 32 µg/mL (≈ 20 µM) | 2 µg/mL (≈ 1.25 µM) | 8 µg/mL (≈ 5 µM) | 16 µg/mL (≈ 9.99 µM) | 8 µg/mL (≈ 5 µM) | 16 µg/mL (≈ 9.99 µM) | 8 µg/mL (≈ 5 µM) | 2 µg/mL (≈ 1.25 µM) | 2 µg/mL (≈ 1.25 µM) | 2 µg/mL (≈ 1.25 µM) | 8 µg/mL (≈ 5 µM) | 8 µg/mL (≈ 5 µM) | 8 µg/mL (≈ 5 µM) | 8 µg/mL (≈ 5 µM) | 2 µg/mL (≈ 1.25 µM) | 2 µg/mL (≈ 1.25 µM) | 2 µg/mL (≈ 1.25 µM) | MIC value (Klebsiella pneumoniae; Klebsiella pneumoniae CRE1008): 4 µg/mL (≈ 2.5 µM); MIC value (Klebsiella pneumoniae; Klebsiella pneumoniae CRE1011): 4 µg/mL (≈ 2.5 µM); MIC value (Klebsiella pneumoniae; Klebsiella pneumoniae CRE1012): 4 µg/mL (≈ 2.5 µM) |
| CC(C)[C@@H]1NC(=O)[C@@H](N)Cc2c[nH]c3cc(ccc23)C(C(N)=O)[C@@H](C(=O)N[C@@H](C)C(=O)N[C@H]2Cc3cccc(c3)C(CCNC(=N)N)[C@@H](C(=O)N[C@H]3Cc4c[nH]c5cc(ccc45)C(CCCN)[C@@H](C(=O)N[C@@H](CCCNC(=N)N)C(=O)N[C@@H](Cc4ccccc4)C(=O)O)NC(=O)[C@H](CO)NC3=O)NC(=O)[C@H](C)NC2=O)NC1=O (some centres unmarked) [xenorceptide A12-2] | 32 µg/mL (≈ 20.5 µM) | 32 µg/mL (≈ 20.5 µM) | 32 µg/mL (≈ 20.5 µM) | 32 µg/mL (≈ 20.5 µM) | 2 µg/mL (≈ 1.28 µM) | 32 µg/mL (≈ 20.5 µM) | 16 µg/mL (≈ 10.2 µM) | 16 µg/mL (≈ 10.2 µM) | 32 µg/mL (≈ 20.5 µM) | 4 µg/mL (≈ 2.56 µM) | 2 µg/mL (≈ 1.28 µM) | 2 µg/mL (≈ 1.28 µM) | 4 µg/mL (≈ 2.56 µM) | 16 µg/mL (≈ 10.2 µM) | 8 µg/mL (≈ 5.12 µM) | 16 µg/mL (≈ 10.2 µM) | 16 µg/mL (≈ 10.2 µM) | 1 µg/mL (≈ 0.64 µM) | 2 µg/mL (≈ 1.28 µM) | 4 µg/mL (≈ 2.56 µM) | MIC value (Klebsiella pneumoniae; Klebsiella pneumoniae CRE1008): 4 µg/mL (≈ 2.56 µM); MIC value (Klebsiella pneumoniae; Klebsiella pneumoniae CRE1011): 8 µg/mL (≈ 5.12 µM); MIC value (Klebsiella pneumoniae; Klebsiella pneumoniae CRE1012): 4 µg/mL (≈ 2.56 µM) |
| WVNAYARWTKRF [SEQ ID 26] |  |  |  |  |  |  |  |  |  |  |  |  |  |  |  |  |  |  |  |  | MIC (E. coli) (Escherichia coli; strain not stated, product produced and tested against E. coli): 8 µg/mL |
